Here are results for 29 molecules from patent publication US10758534B2 (Vertex Pharmaceuticals Incorporated, priority 2014, dated 2020).

Bounds are passed on as bounds.

The target of the first test is T1, F508del (Homo sapiens, UniProt P13569, DEL508-508).
T1 construct: expressed in transfected cells
T1 sequence (P13569 with tags, fused parts or gaps DEL508-508): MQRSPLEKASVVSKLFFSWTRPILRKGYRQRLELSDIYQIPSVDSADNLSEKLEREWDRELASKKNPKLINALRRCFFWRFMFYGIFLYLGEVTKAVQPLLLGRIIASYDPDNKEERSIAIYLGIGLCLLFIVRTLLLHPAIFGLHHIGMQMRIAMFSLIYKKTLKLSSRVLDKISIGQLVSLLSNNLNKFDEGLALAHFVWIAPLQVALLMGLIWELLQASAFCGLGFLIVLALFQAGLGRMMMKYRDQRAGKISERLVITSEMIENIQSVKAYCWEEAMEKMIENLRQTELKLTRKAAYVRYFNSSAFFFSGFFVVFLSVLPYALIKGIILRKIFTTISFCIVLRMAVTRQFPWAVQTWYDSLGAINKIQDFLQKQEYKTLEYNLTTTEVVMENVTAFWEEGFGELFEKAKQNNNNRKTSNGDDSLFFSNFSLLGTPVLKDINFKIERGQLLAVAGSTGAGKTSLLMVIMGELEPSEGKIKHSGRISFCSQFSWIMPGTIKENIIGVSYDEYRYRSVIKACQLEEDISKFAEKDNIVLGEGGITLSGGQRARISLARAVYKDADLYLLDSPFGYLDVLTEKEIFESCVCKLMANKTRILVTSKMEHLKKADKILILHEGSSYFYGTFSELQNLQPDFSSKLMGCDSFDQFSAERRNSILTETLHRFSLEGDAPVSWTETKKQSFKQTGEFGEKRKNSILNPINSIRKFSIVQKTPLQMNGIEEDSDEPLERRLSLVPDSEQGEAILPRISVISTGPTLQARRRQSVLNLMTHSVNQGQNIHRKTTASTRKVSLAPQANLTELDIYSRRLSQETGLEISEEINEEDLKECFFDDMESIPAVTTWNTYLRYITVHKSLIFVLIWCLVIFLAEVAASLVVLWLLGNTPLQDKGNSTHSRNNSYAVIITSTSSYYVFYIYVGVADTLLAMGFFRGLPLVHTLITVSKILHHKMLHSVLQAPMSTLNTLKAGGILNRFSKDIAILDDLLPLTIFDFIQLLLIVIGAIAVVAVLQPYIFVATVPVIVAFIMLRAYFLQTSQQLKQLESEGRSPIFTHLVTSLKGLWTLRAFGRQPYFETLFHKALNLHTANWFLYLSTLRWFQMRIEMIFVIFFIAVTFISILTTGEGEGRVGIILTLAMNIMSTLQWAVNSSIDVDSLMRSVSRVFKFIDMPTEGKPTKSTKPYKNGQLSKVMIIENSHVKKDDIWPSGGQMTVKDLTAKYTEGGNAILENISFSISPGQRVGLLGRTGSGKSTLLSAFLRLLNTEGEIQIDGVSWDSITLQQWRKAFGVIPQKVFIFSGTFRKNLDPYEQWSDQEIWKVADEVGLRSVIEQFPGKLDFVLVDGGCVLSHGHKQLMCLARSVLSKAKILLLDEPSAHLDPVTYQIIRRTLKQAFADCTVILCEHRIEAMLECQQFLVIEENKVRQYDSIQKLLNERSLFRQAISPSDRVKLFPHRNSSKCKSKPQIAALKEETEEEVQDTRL
Put plainly: Protocol 2: FRET membrane potential optical assay (VIPR), identification of correction compounds. It is filed as cell-based. As to conditions: F508del CFTR modulator activity; compounds of Table 1; read-out: EC30. The essentials:
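NIH3T3 mouse fibroblasts stably expressing F508del were treated with test compound for 16 hrs at 37° C. in serum-free medium; 27° C. incubation served as positive control. F508del was activated with 10 μM forskolin plus 20 μM genistein in Cl^−-free medium, and Cl^− efflux-driven depolarization was read by DiSBAC2(3)/CC2-DMPE FRET.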
Turning to `C[C@@H]1CN(c2nc(-c3ccc(F)cc3F)ccc2C(=O)NS(=O)(=O)c2ccc[nH]c2=O)C(C)(C)C1` [Compound 2159, 6-(2,4-difluorophenyl)-N-[(2-oxo-1H-pyridin-3-yl)sulfonyl]-2-[(4S)-2,2,4-trimethylpyrrolidin-1-yl]pyridine-3-carboxamide], the EC30 (as a rule, the concentration needed for an effect of 30%) is < 3 µM.

Regarding `CC1CN(c2ncccc2C(=O)NS(=O)(=O)c2cccc(N3CC4CCCC4C3)n2)C(C)(C)C1` (centres unmarked) [Compound 2340, N—[[6-(3,3a,4,5,6,6a-hexahydro-1H-cyclopenta[c]pyrrol-2-yl)-2-pyridyl]sulfonyl]-2-(2,2,4-trimethylpyrrolidin-1-yl)pyridine-3-carboxamide], the EC30 was < 3 µM.

On to `C[C@@H]1CN(c2nc(-c3ccc(F)c(F)c3)ccc2C(=O)NS(=O)(=O)c2ccc[nH]c2=O)C(C)(C)C1` [Compound 2284, 6-(3,4-difluorophenyl)-N-[(2-oxo-1H-pyridin-3-yl)sulfonyl]-2-[(4S)-2,2,4-trimethylpyrrolidin-1-yl]pyridine-3-carboxamide], for which the EC30 was < 3 µM.

In the case of `Cc1cc(O)cc(-c2ccc(C(=O)NS(=O)(=O)c3cccc(N)n3)c(N3C[C@@H](C)CC3(C)C)n2)c1` [Compound 2232, N-[(6-amino-2-pyridyl)sulfonyl]-6-(3-hydroxy-5-methyl-phenyl)-2-[(4S)-2,2,4-trimethylpyrrolidin-1-yl]pyridine-3-carboxamide], the EC30 was 3 to 10 µM. Consider `CC1CN(c2ncccc2C(=O)NS(=O)(=O)c2cccc(NC3CCCCCCC3)n2)C(C)(C)C1` (centres unmarked) [Compound 2202, N—[[6-(cyclooctylamino)-2-pyridyl]sulfonyl]-2-(2,2,4-trimethylpyrrolidin-1-yl)pyridine-3-carboxamide], for which the EC30 is < 3 µM. Turning to `CC1CN(c2ncccc2C(=O)NS(=O)(=O)c2cccc(OCc3cc(F)cc(F)c3)n2)C(C)(C)C1` (centres unmarked) [Compound 2462, N—[[6-[(3,5-difluorophenyl)methoxy]-2-pyridyl]sulfonyl]-2-(2,2,4-trimethylpyrrolidin-1-yl)pyridine-3-carboxamide], the EC30 was < 3 µM. `C[C@@H]1CN(c2nc(-c3cc(C(F)(F)F)nn3C)ccc2C(=O)NS(=O)(=O)c2cccnc2N)C(C)(C)C1` [Compound 2416, N-[(2-amino-3-pyridyl)sulfonyl]-6-[2-methyl-5-(trifluoromethyl)pyrazol-3-yl]-2-[(4S)-2,2,4-trimethylpyrrolidin-1-yl]pyridine-3-carboxamide]: the EC30 is < 3 µM. As to `CC1CN(c2ncccc2C(=O)NS(=O)(=O)c2cccc(OCc3ccc(C(C)(C)C)cc3)n2)C(C)(C)C1` (centres unmarked) [Compound 2286, N—[[6-[(4-tert-butylphenyl)methoxy]-2-pyridyl]sulfonyl]-2-(2,2,4-trimethylpyrrolidin-1-yl)pyridine-3-carboxamide], the EC30 was < 3 µM.

Turning to `CC(C)CCOc1cccc(S(=O)(=O)NC(=O)c2ccc(C(C)(C)C)nc2N2CC(C)CC2(C)C)n1` (centres unmarked) [Compound 2716], the EC30 was < 3 µM.

Still in this test, the particulars now being: Table 3; compounds of Table 1 as modulators of CFTR activity; protocol not stated.
Consider `Cc1cccc(C)c1Cn1nc(CCC(C)(C)C)cc1C(=O)NS(=O)(=O)c1cccc(N)c1` [Compound 323, N-(3-aminophenyl)sulfonyl-5-(3,3-dimethylbutyl)-2-[(2,6-dimethylphenyl)methyl]pyrazole-3-carboxamide], for which the EC30 result was “+++ (“+++” means <3 uM)”.

With `CC1CN(c2nc(-c3ccncc3)ccc2C(=O)NS(=O)(=O)c2cccc(N)n2)C(C)(C)C1` (centres unmarked) [Compound 643, N-[(6-amino-2-pyridyl)sulfonyl]-6-(4-pyridyl)-2-(2,2,4-trimethylpyrrolidin-1-yl)pyridine-3-carboxamide], the EC30 entry is “++ (“++” means between 3 uM and 10 uM)”. In the case of `CC(C)COc1cc(F)cc(-c2ccc(C(=O)NS(=O)(=O)c3cccc(N)n3)c(N3CCC4CCCC43)n2)c1` (centres unmarked) [Compound 383, 2-(3,3a,4,5,6,6a-hexahydro-2H-cyclopenta[b]pyrrol-1-yl)-N-[(6-amino-2-pyridyl)sulfonyl]-6-(3-fluoro-5-isobutoxy-phenyl)pyridine-3-carboxamide], the EC30 entry is reported as “+++ (“+++” means <3 uM)”. In the case of `Cc1cc(C)c(CCn2nc(C(C)(C)C)cc2C(=O)NS(=O)(=O)c2cccc(N)c2)c(C)c1` [Compound 7, N-(3-aminophenyl)sulfonyl-5-tert-butyl-2-[2-(2,4,6-trimethylphenyl)ethyl]pyrazole-3-carboxamide], the EC30 entry is given as “+++ (“+++” means <3 uM)”. With `CC(C)(C)c1ccc(C(=O)NS(=O)(=O)c2ccccc2)c(OCc2ccccc2)n1` [Compound 130, N-(benzenesulfonyl)-2-benzyloxy-6-tert-butyl-pyridine-3-carboxamide], the EC30 entry is on record as “+++ (“+++” means <3 uM)”.

As for `Cc1ccc(-c2nc(C(C)(C)C)ccc2C(=O)NS(=O)(=O)c2ccn[nH]2)cc1` [Compound 632, 6-tert-butyl-2-(p-tolyl)-N-(1H-pyrazol-5-ylsulfonyl)pyridine-3-carboxamide], the EC30 entry is “++ (“++” means between 3 uM and 10 uM)”.

As for `Cc1cc(C)c(Oc2nc(C(C)(C)C)ccc2C(=O)NS(=O)(=O)c2nc(N)ccc2F)c(C)c1` [Compound 226, N-[(6-Amino-3-fluoro-2-pyridyl)sulfonyl]-6-tert-butyl-2-(2,4,6-trimethylphenoxy)pyridine-3-carboxamide], the EC30 entry is given as “+++ (“+++” means <3 uM)”. Still for that read-out and setting: the same measure for `Cc1cc(C)c(CN2c3ccccc3C[C@@H]2C(=O)NS(=O)(=O)c2cccc(N)n2)c(C)c1` [Compound 462, (2R)—N-[(6-amino-2-pyridyl)sulfonyl]-1-[(2,4,6-trimethylphenyl)methyl]indoline-2-carboxamide]: “+++ (“+++” means <3 uM)”. Turning to `Cc1cc(C)c(Oc2nc(-c3ccc(C(C)C)cc3)ccc2C(=O)NS(=O)(=O)c2cccc(N)n2)c(C)c1` [Compound 164, N-[(6-amino-2-pyridyl)sulfonyl]-6-(4-isopropylphenyl)-2-(2,4,6-trimethylphenoxy)pyridine-3-carboxamide], the EC30 result is reported as “+++ (“+++” means <3 uM)”. For `COCc1cccc(-c2ccc(C(=O)NS(=O)(=O)c3cccc(N)n3)c(Oc3c(C)cc(C)cc3C)n2)c1` [Compound 69, N-[(6-amino-2-pyridyl)sulfonyl]-6-[3-(methoxymethyl)phenyl]-2-(2,4,6-trimethylphenoxy)pyridine-3-carboxamide], the EC30 result was “+++ (“+++” means <3 uM)”. Consider `Cc1cc(C)c(CN2Cc3ccccc3C2(C)C(=O)NS(=O)(=O)c2ccn[nH]2)c(C)c1` (centres unmarked) [Compound 378, 1-methyl-N-(1H-pyrazol-5-ylsulfonyl)-2-[(2,4,6-trimethylphenyl)methyl]isoindoline-1-carboxamide], for which the EC30 result was “+++ (“+++” means <3 uM)”. Regarding `CC(C)COc1ccnc(-c2ccc(C(=O)NS(=O)(=O)c3cccc(N)n3)c(N3[C@H](C)CC[C@@H]3C)n2)c1` [Compound 389, N-[(6-amino-2-pyridyl)sulfonyl]-2-[(2S,5R)-2,5-dimethylpyrrolidin-1-yl]-6-(4-isobutoxy-2-pyridyl)pyridine-3-carboxamide], the EC30 entry is “+++ (“+++” means <3 uM)”. With `Cc1cc(C)c(Oc2nc(-c3ccc(Cl)c(OCC(C)C)c3)ccc2C(=O)NS(=O)(=O)c2ccc[nH]c2=O)c(C)c1` [Compound 136, 6-(4-chloro-3-isobutoxy-phenyl)-N-[(2-oxo-1H-pyridin-3-yl)sulfonyl]-2-(2,4,6-trimethylphenoxy)pyridine-3-carboxamide], the EC30 result is “+++ (“+++” means <3 uM)”.

Turning to `Cc1ccc(S(=O)(=O)NC(=O)c2cc(C(C)(C)C)nn2Cc2c(C)cccc2C)cc1N` [Compound 312, N-(3-amino-4-methyl-phenyl)sulfonyl-5-tert-butyl-2-[(2,6-dimethylphenyl)methyl]pyrazole-3-carboxamide], the EC30 result is “+++ (“+++” means <3 uM)”. The same measure, in the same setting: the same measure for `Cc1cc(C)c(Oc2nc(C(C)(C)C)ccc2C(=O)N=S(N)(=O)c2cccc(N)n2)c(C)c1` (centres unmarked) [Compound 515, N-[amino-(6-amino-2-pyridyl)-oxo-$1^6-sulfanylidene]-6-tert-butyl-2-(2,4,6-trimethylphenoxy)pyridine-3-carboxamide]: “+++ (“+++” means <3 uM)”; for `CCOc1ccc(-c2ccc(C(=O)NS(=O)(=O)c3ccc[nH]c3=O)c(Oc3ccc(C)cc3C)n2)cc1` [Compound 517, 2-(2,4-dimethylphenoxy)-6-(4-ethoxyphenyl)-N-[(2-oxo-1H-pyridin-3-yl)sulfonyl]pyridine-3-carboxamide]: “++ (“++” means between 3 uM and 10 uM)”.

For `CC(C)COc1cc(F)cc(-c2ccc(C(=O)NS(=O)(=O)c3ccn[nH]3)c(Oc3ccccc3)n2)c1` [Compound 679, 6-(3-fluoro-5-isobutoxy-phenyl)-2-phenoxy-N-(1H-pyrazol-5-ylsulfonyl)pyridine-3-carboxamide], the EC30 entry is reported as “+++ (“+++” means <3 uM)”.

Turning to `CC(C)Oc1ccc(-c2ccc(C(=O)NS(=O)(=O)c3cccc(N)n3)c(N3C[C@@H]4CC[C@H]3C4)n2)cn1` [Compound 476, N-[(6-amino-2-pyridyl)sulfonyl]-2-[(1R,4S)-3-azabicyclo[2.2.1]heptan-3-yl]-6-(6-isopropoxy-3-pyridyl)pyridine-3-carboxamide], the EC30 entry is “++ (“++” means between 3 uM and 10 uM)”. On the same count and under the same terms, the entry for `CC(C)CN(C)c1ccc(-c2ccc(C(=O)NS(=O)(=O)c3cccc(N)n3)c(N3CC(C)CC3(C)C)n2)cn1` (centres unmarked) [Compound 412, N-[(6-amino-2-pyridyl)sulfonyl]-6-[6-[isobutyl(methyl)amino]-3-pyridyl]-2-(2,2,4-trimethylpyrrolidin-1-yl)pyridine-3-carboxamide] is “+++ (“+++” means <3 uM)”. As to `Cc1cccc(C)c1Cn1nc(-c2cccc(N(C)C)c2)cc1C(=O)NS(=O)(=O)c1ccccc1` [Compound 178, N-(benzenesulfonyl)-5-[3-(dimethylamino)phenyl]-2-[(2,6-dimethylphenyl)methyl]pyrazole-3-carboxamide], the EC30 result is listed as “+++ (“+++” means <3 uM)”.
